Assay results taken from publication PMC10976746 (Molecular Medicine, 2024).

Tests used:
[1] = biological target: murine MIF (Mus musculus, UniProt P34884); assay: dopachrome tautomerase inhibition assay, recombinant mouse MIF; assay type: biochemical
[2] = biological target: T1, Macrophage migration inhibitory factor (MIF) (Homo sapiens, UniProt P14174)
T1 sequence (P14174 2-115): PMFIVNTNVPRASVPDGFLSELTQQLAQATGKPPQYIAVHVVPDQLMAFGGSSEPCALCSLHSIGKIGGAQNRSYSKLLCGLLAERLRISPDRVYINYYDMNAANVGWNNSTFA

Row | IC50 [1] [µM] | SMILES | keto-enol tautomerase kinetics (Michaelis-Menten), enol-HPP/borate at 306 nm [2]
1 | 5.2 | CS(=O)(=O)Nc1cc2occ(NC=O)c(=O)c2cc1Oc1ccccc1 [T-614, iguratimod] | 
2 |  | O=C(O)C(=O)Cc1ccc(O)cc1 [4-HPP, 4-hydroxyphenylpyruvate] | (B) the substrate 4-HPP for MIF-induced keto-enol tautomerization
